Source: patent US20080039410A1, “Inositol 1,4,5-Trisphosphate Receptor Mutants and Uses Thereof” (priority 2004, published 2008)
Entries after “also recorded” stand apart in the source; their conditions may differ.

Legend:
[1] = system: S2− InsP3R-1; assay: Potentiation of CCh-induced Ca2+ release after PKA activation (forskolin), S2− InsP3R-1 constructs in DT-40 3ko cells; assay type: cell-based, rat; conditions: low affinity indicator Fura-2-FF
[2] = target: T1, S2+ InsP3R-1 (Rattus norvegicus, UniProt P29994, S1756E); assay: Flash photolysis of caged InsP3 (ci-IP3/PM), Fluo-4, DT-40 3ko cells expressing S2+ InsP3R-1 constructs; assay type: cell-based; conditions: UV flash 0.5-5 ms
T1 construct: The entire receptor DNA was excised from the plasmid using EcoRI and ligated into the plasmid MXT-1; expressed in transfected cells; host or cells: DT-40 3ko (chicken B cells lacking all InsP3R), co-transfected with m3 muscarinic receptor and HcRed
Procedure: Transfected cells were simultaneously loaded by incubation with the visible wavelength indicator Fluo-4 and a cell permeable form of caged-inositol trisphosphate (ciIP3/PM) for 30 min. Ci-IP3/PM is a homologue of cm-IP3/PM [45] The 2- and 3-hydroxyls of the inositol ring were protected by an isopropylidene group in ci-IP3/PM, and were protected by a methoxymethylene group in cm-IP3/PM. Like cm-IP3/PM, ci-IP3/PM diffuses across cell membranes and induces internal calcium release upon photo-uncaging. A further period of approximately 30 min was allowed for de-esterification of both dye and cage. Cells were illuminated at 488±10 nm and fluorescence collected through a 525±25 nm band pass filter and captured using the Till Photonics imaging suite. […] Photolytic release was performed as previously described using a pulsed Xenon arc lamp (Till Photonics). […]
Transfected cells were simultaneously loaded with the visible wavelength indicator Fluo-4 and a cell-permeable form of caged inositol trisphosphate (ci-IP3/PM) for 30 min. ci-IP3/PM is a homologue of cm-IP3/PM. […] Cells were illuminated at 488±10 nm and fluorescence collected through a 525±25-nm bandpass filter and captured using the Till Photonics imaging suite. […]

T1 sequence (P29994 1-2749 isoform P29994-3 S1755E): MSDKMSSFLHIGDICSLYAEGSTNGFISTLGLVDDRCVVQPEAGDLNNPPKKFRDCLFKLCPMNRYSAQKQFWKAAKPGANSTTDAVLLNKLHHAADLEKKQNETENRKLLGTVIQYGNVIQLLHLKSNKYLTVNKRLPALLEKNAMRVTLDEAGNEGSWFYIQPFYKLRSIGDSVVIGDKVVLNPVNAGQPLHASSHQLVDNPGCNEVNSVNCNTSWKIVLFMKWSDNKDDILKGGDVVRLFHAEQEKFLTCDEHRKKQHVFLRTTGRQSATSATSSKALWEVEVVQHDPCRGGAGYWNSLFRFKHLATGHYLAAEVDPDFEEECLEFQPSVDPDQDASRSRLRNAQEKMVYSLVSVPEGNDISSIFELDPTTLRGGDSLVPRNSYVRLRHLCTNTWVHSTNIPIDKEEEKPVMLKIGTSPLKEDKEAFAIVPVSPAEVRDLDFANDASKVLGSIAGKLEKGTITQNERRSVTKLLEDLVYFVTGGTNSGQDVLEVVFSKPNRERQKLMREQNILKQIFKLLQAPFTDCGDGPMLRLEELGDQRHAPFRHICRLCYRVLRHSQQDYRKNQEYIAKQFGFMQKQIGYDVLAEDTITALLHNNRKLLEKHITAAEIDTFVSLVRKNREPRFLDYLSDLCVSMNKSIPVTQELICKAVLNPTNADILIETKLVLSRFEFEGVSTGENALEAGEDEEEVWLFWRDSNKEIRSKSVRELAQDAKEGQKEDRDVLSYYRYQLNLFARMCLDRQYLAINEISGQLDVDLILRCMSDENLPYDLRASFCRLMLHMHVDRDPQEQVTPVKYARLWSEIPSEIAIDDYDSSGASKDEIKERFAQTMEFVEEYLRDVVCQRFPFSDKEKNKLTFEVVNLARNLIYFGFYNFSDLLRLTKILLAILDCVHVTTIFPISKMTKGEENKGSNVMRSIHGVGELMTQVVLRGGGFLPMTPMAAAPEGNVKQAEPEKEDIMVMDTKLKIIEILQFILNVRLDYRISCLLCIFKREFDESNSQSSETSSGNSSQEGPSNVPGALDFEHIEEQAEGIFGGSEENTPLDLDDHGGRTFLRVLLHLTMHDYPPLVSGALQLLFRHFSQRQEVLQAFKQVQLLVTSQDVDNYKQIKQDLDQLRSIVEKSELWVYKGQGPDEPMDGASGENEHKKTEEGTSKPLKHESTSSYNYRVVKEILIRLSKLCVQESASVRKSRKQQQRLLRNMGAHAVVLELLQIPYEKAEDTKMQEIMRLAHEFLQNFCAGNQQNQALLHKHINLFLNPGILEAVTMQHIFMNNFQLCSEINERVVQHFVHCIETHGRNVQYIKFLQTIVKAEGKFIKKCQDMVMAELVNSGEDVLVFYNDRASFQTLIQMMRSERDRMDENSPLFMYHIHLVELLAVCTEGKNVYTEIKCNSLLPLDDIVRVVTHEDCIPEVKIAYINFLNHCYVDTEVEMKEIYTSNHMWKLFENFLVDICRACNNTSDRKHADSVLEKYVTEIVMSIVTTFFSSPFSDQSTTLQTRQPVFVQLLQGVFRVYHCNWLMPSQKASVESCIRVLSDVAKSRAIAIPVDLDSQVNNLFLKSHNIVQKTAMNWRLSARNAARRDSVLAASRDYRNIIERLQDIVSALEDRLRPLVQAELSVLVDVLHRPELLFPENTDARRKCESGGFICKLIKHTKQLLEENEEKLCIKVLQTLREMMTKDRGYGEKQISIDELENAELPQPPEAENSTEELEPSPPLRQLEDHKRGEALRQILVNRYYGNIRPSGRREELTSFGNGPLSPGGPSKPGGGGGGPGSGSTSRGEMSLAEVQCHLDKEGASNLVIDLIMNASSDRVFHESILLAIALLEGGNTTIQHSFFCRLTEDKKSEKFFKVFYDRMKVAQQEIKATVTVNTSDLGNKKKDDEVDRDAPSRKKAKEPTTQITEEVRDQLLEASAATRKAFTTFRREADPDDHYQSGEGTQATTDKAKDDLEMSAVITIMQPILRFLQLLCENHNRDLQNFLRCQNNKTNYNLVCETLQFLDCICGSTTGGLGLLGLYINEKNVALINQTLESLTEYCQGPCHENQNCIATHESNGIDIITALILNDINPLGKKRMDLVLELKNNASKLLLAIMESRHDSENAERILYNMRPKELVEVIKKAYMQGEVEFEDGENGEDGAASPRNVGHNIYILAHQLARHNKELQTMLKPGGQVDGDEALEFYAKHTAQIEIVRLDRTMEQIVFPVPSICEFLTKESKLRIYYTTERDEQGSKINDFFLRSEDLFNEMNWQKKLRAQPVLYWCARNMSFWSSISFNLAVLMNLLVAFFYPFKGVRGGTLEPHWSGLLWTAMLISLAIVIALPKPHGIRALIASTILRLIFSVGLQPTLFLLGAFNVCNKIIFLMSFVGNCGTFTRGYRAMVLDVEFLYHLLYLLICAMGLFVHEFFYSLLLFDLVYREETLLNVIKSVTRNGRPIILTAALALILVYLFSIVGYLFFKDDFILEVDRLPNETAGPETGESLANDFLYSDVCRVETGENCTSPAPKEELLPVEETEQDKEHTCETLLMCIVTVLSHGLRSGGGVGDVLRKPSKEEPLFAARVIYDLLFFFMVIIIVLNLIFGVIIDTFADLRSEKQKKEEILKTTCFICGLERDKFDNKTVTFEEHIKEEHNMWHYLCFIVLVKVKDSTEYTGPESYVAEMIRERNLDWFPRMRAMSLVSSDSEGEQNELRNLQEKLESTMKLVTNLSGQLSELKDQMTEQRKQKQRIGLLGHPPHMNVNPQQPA

| Substance | fold potentiation of CCh-induced Ca^2+ release by forskolin [1] [fold] | response to photolysis of ci-IP3 versus nonphosphorylatable mutant [2] |
| --- | --- | --- |
| S2−WT: wild-type rat type-1 InsP3 receptor, peripheral short S2− splice variant (SEQ ID NO: 17) | ~4.5 |  |
| S2+SE: phosphomimetic S2+ InsP3R-1, long splice variant of S1755E |  | more robustly; also recorded: more sensitive than S2+SA |
